Measured values: article PMC6155811, “Effect of Phenolic Compounds from Elderflowers on Glucose- and Fatty Acid Uptake in Human Myotubes and HepG2-Cells” (Molecules : A Journal of Synthetic Chemistry and Natural …, 2017)
Read-outs that look alike come from different tables or passages of the source.

Key:
[1] = biological target: T1, 15-lipoxygenase (15-LO) from soybeans (Glycine max, UniProt P08170); assay: Inhibition of 15-lipoxygenase; type: biochemical, soybean; conditions: IC50 ± SD
T1 construct: 15-lipoxygenase (15-LO) from soybeans; purchased Sigma-Aldrich (St. Louis, MO, USA); host or cells: soybeans
T1 sequence (P08170 1-839): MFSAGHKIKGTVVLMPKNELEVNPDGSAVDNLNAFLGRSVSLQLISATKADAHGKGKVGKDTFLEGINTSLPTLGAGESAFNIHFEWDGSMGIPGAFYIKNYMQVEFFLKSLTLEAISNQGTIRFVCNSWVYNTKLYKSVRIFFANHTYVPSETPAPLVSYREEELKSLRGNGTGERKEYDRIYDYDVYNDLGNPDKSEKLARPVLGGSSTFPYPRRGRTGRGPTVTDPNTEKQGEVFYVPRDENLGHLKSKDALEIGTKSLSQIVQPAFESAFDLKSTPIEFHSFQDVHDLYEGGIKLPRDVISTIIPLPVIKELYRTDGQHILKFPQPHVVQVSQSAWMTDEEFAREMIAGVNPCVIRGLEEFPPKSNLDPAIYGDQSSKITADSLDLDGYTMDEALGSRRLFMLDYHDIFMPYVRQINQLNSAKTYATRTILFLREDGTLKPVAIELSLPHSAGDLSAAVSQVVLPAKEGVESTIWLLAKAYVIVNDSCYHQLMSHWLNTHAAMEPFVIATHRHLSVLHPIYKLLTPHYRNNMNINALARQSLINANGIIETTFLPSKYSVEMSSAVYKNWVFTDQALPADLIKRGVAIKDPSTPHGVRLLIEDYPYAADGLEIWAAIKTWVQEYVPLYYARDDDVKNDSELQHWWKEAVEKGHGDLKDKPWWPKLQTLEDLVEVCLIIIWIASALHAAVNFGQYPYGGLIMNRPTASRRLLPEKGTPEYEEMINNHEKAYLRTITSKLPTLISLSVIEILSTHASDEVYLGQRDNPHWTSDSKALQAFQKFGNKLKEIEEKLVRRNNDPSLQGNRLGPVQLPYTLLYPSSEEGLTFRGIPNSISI
Experimental: Test substances were dissolved in DMSO or water, and the assay was carried out as previously described.

[2] = tested on: human skeletal muscle cells; assay: Oleic acid uptake in human myotubes ([14C]-oleic acid); type: cell-based; conditions: for oleic acid uptake (in words): 10 µM; for increase in oleic acid uptake: 10 µM (highest concentration tested), 2 days, vs 0.1% DMSO control
Experimental: Figure 3 Effects of elderflower extracts, constituents and metabolites on oleic acid uptake in human myotubes. Myotubes were treated with (A) 12.5, 25 and 50 µg/mL of different crude extracts; (B,C) 0.1, 1 and 10 µM of elderflower phenolic compounds and metabolites for 2 days. Thereafter, the cells were exposed to [^14C]-oleic acid (37 kBq, 100 µM) for 4 h as described in Materials and Methods. A synthetic liver X receptor (LXR) agonist T0901317 (10 μM) was used as positive control. The figures show [^14C]-oleic acid uptake given as means ± SEM (n = 3) from separate experiments. * p < 0.05 vs. control (0.1% DMSO).
(§1) Satellite cells were isolated from the Musculus obliquus internus abdominis of four healthy donors, age 34.8 (±19) years, body mass index 22.9 (±2.7) kg/m^2, fasting glucose 4.9 (±0.6) mM, insulin, plasma lipids and blood pressure within normal range and no family history of diabetes. The muscle biopsies were obtained with informed consent and approval by the National Committee for Research Ethics (Oslo, Norway). The cells were cultured on 96-well CellBIND microplates DMEM-Glutamax (5.5 mM glucose), 2% fetal bovine serum, 2% Ultroser G, penicillin (100 units/mL), streptomycin (100 μg/mL) and amphotericin B (1.25 μg/mL) for proliferation. At 70%–80% confluence, the growth medium was replaced by DMEM-Glutamax (5.5 mM glucose) supplemented with 2% fetal bovine serum, penicillin (100 units/mL), streptomycin (100 μg/mL), amphotericin B (1.25 μg/mL) and insulin (25 pM), to induce differentiation. The cells were cultured in humidified 5% CO2 atmosphere at 37 °C, and the medium was changed every 2–3 days. Experiments were performed after 7 days of differentiation. 22-S-hydroxycholesterol (22-SHC) (10 µM) was used as positive control in the glucose uptake assay. The positive control used in the oleic acid assay is the synthetic liver X receptor (LXR) agonist T0901317 (10 µm).
(§2) Cells were exposed to test samples solved in 0.1% DMSO that were added directly to the medium for 2 days for myotubes and 24 h for HepG2 cells. Thereafter, cells were exposed to [^14C(U)]-glucose (1 μCi/mL, 100 μM) or [^14C]-oleic acid (37 kBq, 100 µM) for 4 h. A 96-well UniFilter-96 GF7B microplate (Perkin Elmer, Waltham, MA, USA) was mounted on top of the CellBIND plate (Corning Life-Sciences (Schiphol-Rijk, The Netherlands) and CO2 production was measured. After incubation the cells were washed twice with ice-cold phosphate buffered saline (PBS), lysed in 0.1 M NaOH, and radioactivity measured by liquid scintillation counting. The protein content of each sample was determined and glucose uptake was calculated using protein levels for standardization.

[3] = biological target: T2, Baker's yeast α-glucosidase (Saccharomyces cerevisiae, UniProt P53341); assay: biochemical; conditions: IC50 ± SD
T2 construct: purchased Sigma-Aldrich Chemie GmbH (Steinheim, Germany)
Experimental: The α-glucosidase inhibitory activity of the extracts was assessed according to the method described by Ranilla, et al.. Baker’s yeast α-glucosidase (EC 3.2.1.20) was purchased from Sigma-Aldrich Chemie GmbH (Steinheim, Germany).

DPPH radical scavenging = conditions: phenolic compounds and metabolites; IC50 ± SD
Experimental: Scavenging activity towards the DPPH radical was carried out as previously described. Test substances were dissolved in DMSO or water. Values were corrected for absorbance of the test substances.

[4] = biological target: T3, Porcine pancreatic α-amylase (Sus scrofa, UniProt P00690); assay: α-Amylase inhibitory activity; type: biochemical; conditions: phenolic compounds and metabolites; IC50 ± SD
T3 construct: purchased Sigma-Aldrich Chemie GmbH
T3 sequence (P00690 16-511): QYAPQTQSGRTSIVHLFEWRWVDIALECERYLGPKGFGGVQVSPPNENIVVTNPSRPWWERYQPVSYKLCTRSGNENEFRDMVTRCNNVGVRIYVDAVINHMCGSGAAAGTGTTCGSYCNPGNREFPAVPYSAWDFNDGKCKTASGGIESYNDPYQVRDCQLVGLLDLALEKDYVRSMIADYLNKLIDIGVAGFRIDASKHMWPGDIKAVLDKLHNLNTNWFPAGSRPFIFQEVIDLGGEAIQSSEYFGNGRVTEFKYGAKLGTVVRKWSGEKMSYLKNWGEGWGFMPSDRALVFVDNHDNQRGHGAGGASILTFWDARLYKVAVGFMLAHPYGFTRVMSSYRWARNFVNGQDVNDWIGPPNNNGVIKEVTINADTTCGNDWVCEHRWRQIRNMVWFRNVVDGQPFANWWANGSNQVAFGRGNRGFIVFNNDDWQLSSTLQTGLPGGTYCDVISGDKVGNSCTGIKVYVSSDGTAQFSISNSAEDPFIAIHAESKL
Experimental: The α-amylase assay was performed as described by Gella, et al.. Porcine pancreatic α-amylase (EC 3.2.1.1) was purchased from Sigma-Aldrich Chemie GmbH.

[5] = tested on: human skeletal muscle cells; assay: Glucose uptake in human myotubes ([14C(U)]-glucose); type: cell-based; conditions: for increase in glucose uptake: 10 µM, 2 days, vs 0.1% DMSO control, mean ± SEM
Experimental: Figure 2 Effects of elderflower extracts, constituents and metabolites on glucose uptake in human myotubes. Myotubes were treated with (A) 12.5, 25 and 50 µg/mL of different crude extracts; (B,C) 0.1, 1 and 10 µM of elderflower phenolic compounds and metabolites for 2 days. Thereafter, the cells were exposed to [^14C(U)]-glucose (1 μCi/mL, 100 μM) for 4 h as described in the Materials and Methods section. 22-S-hydroxycholesterol (22-SHC) (10 μM) was used as positive control. The figures show [^14C(U)]-glucose uptake given as means ± standard error of the mean (SEM) (n = 3) from separate experiments. * p < 0.05 vs. control (0.1% dimethyl sulfoxide (DMSO)).
as §1, §2

[6] = biological target: T4, xanthine oxidase from bovine milk (Bos taurus, UniProt P80457); assay: Inhibition of xanthine oxidase; type: biochemical; conditions: for IC50: phenolic compounds and metabolites, IC50 ± SD, read-out: XO IC50; for XO inhibition (in words): up to highest concentration tested (167 µM)
T4 construct: xanthine oxidase from bovine milk; purchased Sigma-Aldrich (St. Louis, MO, USA); host or cells: bovine milk
Experimental: The XO inhibitory activity with hypoxanthine as the substrate was carried out previously described. Test substances were dissolved in DMSO or water.

[7] = phenolic compounds and metabolites, read-out: 15-LO IC50
[8] = phenolic compounds and metabolites, read-out: α-Glucosidase IC50
[9] = 10 µM (highest concentration tested)
[10] = α-Glucosidase IC50, phenolic compounds and metabolites
[11] = 15-LO IC50, phenolic compounds and metabolites

T2 sequence (P53341 whole entry): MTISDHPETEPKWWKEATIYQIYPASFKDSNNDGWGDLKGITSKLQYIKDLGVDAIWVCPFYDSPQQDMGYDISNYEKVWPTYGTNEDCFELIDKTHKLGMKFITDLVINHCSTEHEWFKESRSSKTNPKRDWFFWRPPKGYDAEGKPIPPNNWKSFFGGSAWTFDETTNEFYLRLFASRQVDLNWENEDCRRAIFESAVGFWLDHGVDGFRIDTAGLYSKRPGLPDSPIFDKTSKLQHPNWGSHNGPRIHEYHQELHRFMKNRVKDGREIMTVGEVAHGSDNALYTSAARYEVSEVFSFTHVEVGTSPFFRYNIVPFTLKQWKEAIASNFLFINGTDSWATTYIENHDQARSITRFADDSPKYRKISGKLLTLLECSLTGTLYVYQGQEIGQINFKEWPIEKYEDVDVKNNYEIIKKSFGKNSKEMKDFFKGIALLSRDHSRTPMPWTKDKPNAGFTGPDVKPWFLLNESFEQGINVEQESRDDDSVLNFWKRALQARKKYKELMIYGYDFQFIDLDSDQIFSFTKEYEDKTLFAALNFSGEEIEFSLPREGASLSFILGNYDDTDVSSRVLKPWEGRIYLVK
T4 sequence (P80457 whole entry): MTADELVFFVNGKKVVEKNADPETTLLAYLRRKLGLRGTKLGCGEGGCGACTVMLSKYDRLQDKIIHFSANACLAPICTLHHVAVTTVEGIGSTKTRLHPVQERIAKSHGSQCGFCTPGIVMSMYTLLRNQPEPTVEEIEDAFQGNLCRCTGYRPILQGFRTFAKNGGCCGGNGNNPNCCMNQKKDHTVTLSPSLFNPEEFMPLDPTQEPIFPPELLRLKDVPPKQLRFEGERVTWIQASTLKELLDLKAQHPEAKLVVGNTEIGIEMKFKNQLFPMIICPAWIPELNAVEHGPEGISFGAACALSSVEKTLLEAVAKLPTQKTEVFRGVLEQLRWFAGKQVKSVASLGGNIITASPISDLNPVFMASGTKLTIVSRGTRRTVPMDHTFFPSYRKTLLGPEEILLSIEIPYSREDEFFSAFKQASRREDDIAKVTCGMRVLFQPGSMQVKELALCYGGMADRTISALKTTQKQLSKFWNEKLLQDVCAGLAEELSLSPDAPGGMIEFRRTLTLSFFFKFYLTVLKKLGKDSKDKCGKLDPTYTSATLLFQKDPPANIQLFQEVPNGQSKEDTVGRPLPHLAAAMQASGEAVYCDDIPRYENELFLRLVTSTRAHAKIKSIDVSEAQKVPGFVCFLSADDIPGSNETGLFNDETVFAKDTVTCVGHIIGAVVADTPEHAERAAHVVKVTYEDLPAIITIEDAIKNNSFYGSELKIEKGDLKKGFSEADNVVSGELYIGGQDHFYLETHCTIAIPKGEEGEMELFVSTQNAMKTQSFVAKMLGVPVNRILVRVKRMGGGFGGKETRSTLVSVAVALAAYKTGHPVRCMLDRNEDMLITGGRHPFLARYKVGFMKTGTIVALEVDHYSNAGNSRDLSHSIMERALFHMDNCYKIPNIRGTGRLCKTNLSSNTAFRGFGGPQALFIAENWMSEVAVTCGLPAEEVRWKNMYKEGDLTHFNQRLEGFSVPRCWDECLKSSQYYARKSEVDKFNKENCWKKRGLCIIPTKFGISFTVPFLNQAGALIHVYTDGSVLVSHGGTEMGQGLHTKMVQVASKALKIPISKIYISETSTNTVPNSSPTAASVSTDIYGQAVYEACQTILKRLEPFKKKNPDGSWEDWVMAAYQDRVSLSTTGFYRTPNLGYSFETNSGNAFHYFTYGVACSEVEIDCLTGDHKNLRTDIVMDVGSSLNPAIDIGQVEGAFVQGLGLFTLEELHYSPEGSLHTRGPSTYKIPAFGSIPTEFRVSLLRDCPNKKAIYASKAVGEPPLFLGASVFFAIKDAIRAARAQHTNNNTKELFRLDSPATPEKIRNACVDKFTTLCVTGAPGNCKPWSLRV

IC50 [1, 7]	IC50 [3, 8]	IC50 [4]	IC50 [6]	XO inhibition (in words) [6]	Structure (SMILES)	oleic acid uptake (in words) [2]	IC50 (DPPH radical scavenging)	glucose uptake (in words) [5, 9]	IC50 [3, 10]	increase in glucose uptake [5]	IC50 [1, 11]	glucose uptake (in words) ([5]; 0.1 and 1 µM, compared to DMSO control)	increase in oleic acid uptake [2]
129 ± 5.2 µM	98.9 ± 3.5 µM	94.8 ± 6.8 µM	> 167 µM	inactive	Cc1ccc(O)c(O)c1 [4-Methylcatechol]	small but significant increase	40.5 ± 3.6 µM	small increase					
115 ± 5.8 µM		15.4 ± 3.2 µM	26.2 ± 3.1 µM		O=C(C=Cc1ccc(O)c(O)c1)OC1CC(O)(C(=O)O)CC(O)C1O (centres unmarked) [Neochlorogenic acid]								
	18.5 ± 2.2 µM	14.1 ± 0.8 µM	> 167 µM	did not inhibit	Oc1cc(O)c2c(c1)O[C@H](c1ccc(O)c(O)c1)[C@@H](O)C2 [Catechin]		19 ± 1.1 µM						
134 ± 5.8 µM	68.9 ± 3.8 µM	44.8 ± 5.3 µM	> 167 µM	inactive	O=C(O)Cc1cccc(O)c1 [3-Hydroxyphenylacetic acid]	small but significant increase	125 ± 4.8 µM	small increase					
135 ± 7.3 µM	78.5 ± 1.6 µM	74.9 ± 1.7 µM	> 167 µM	inactive	O=C(O)Cc1ccc(O)c(O)c1 [3,4-Dihydroxyphenylacetic acid]	small but significant increase	116 ± 1.4 µM	small increase					

The next lines start with the compound.

Structure (SMILES)	IC50 [1, 7]	IC50 [3, 8]	IC50 [4]	IC50 [6]	XO inhibition (in words) [6]	oleic acid uptake (in words) [2]	IC50 (DPPH radical scavenging)	glucose uptake (in words) [5, 9]	IC50 [3, 10]	increase in glucose uptake [5]	IC50 [1, 11]	glucose uptake (in words) ([5]; 0.1 and 1 µM, compared to DMSO control)	increase in oleic acid uptake [2]
CC1OC(OCC2OC(Oc3c(-c4ccc(O)cc4)oc4cc(O)cc(O)c4c3=O)C(O)C(O)C2O)C(O)C(O)C1O (centres unmarked) [Kaempferol-3-rutinoside]	109 ± 5.6 µM		19.1 ± 0.5 µM	63.8 ± 2.1 µM			30.6 ± 3.9 µM		23.9 ± 1.1 µM	29.7% ± 2.5%			
Oc1cc(O)c2c(c1)O[C@H](c1ccc(O)c(O)c1)[C@H](O)C2 [Epicatechin]	116 ± 7.9 µM	12.1 ± 2.3 µM	9.7 ± 2.1 µM	> 167 µM	did not inhibit		15.6 ± 2.3 µM						
COc1cc(-c2oc3cc(O)cc(O)c3c(=O)c2O)ccc1O [Isorhamnetin]							63.3 ± 2.3 µM		8.1 ± 3.1 µM	18.8% ± 4.3%	103 ± 2.4 µM		
O=C(O)c1ccccc1 [Benzoic acid]				> 167 µM	inactive		145 ± 5.8 µM		129 ± 3.8 µM		138 ± 6.5 µM	inactive	
O=c1c(OC2OC(CO)C(O)C(O)C2O)c(-c2ccc(O)c(O)c2)oc2cc(O)cc(O)c12 (centres unmarked) [Quercetin-3-glucoside]			3 ± 1.2 µM	106 ± 5.3 µM			17.6 ± 3.2 µM		4.1 ± 1.9 µM				13.1% ± 3.5%
CC1OC(Oc2c(-c3ccc(O)c(O)c3)oc3cc(O)cc(O)c3c2=O)C(O)C(O)C1O (centres unmarked) [Quercetin-3-rhamnoside]	108 ± 4.6 µM		3.5 ± 0.9 µM	105 ± 4.6 µM			19.1 ± 2.1 µM		3.9 ± 1.4 µM				5.0% ± 6.0%
O=C1C[C@@H](c2ccc(O)cc2)Oc2cc(O)cc(O)c21 [Naringenin]	124 ± 3.5 µM		6.2 ± 1.1 µM	95.1 ± 4.5 µM			23.3 ± 1.4 µM						
C[C@@H]1O[C@@H](OC[C@H]2O[C@@H](Oc3c(-c4ccc(O)c(O)c4)oc4cc(O)cc(O)c4c3=O)[C@H](O)[C@@H](O)[C@@H]2O)[C@H](O)[C@H](O)[C@H]1O [Rutin, Quercetin-3-rutinoside]	99.3 ± 1.1 µM		4.1 ± 0.8 µM	42.9 ± 2.9 µM			22.5 ± 1.6 µM		4.6 ± 2.3 µM				
O=C(O)/C=C/c1ccc(O)c(O)c1 [Caffeic acid]				107 ± 3.2 µM			90.3 ± 4.3 µM		18.5 ± 0.9 µM				
COc1cc(-c2oc3cc(O)cc(O)c3c(=O)c2OC2OC(COC3OC(C)C(O)C(O)C3O)C(O)C(O)C2O)ccc1O (centres unmarked) [Isorhamnetin-3-rutinoside]	115 ± 6.2 µM	25.2 ± 2.9 µM	26.2 ± 0.7 µM	125 ± 3.9 µM			85 ± 2.1 µM			10.0% ± 3.6%			
